Data: the supplement of paper PMC11451515

What was measured:
Conditions in all cases: 48 h
[1] = system: SEM cells; experiment: cell viability relative to DMSO control; higher = less cytotoxic
Procedure, shortened: (§1)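 In 1536-well plates, 5 μl of leukemia cells were seeded per well: 500 cells/well for NOMO1 or SEM and 1000 cells/well for P12-Ichikawa. Each line had first been adapted for at least four passages in each medium. Library compounds in DMSO were pin-dosed at 11 threefold concentrations between 47 μM and 0.79 nM, and CellTiter-Glo One luminescence was read after 48 h at 37°C. Viability is a per-plate percentage relative to DMSO wells, with cell-free wells as background.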

[2] = system: NOMO1; experiment: as above
Procedure, shortened: as §1

[3] = system: P12-Ichikawa; experiment: as above
Procedure, shortened: as §1

[4] = system: SEM cells; experiment: AUC of viability dose-response curve (% viability x log10 dose units); higher = less sensitive
Procedure, shortened: (§2)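 Library compounds in DMSO were applied for 48 h at 37°C at 11 threefold doses (47 μM to 0.79 nM) to medium-adapted leukemia cells in 1536-well plates holding 500 or 1000 cells/well. Luminescence from CellTiter-Glo One was normalised plate by plate against DMSO and cell-free wells. Area under the curve came from trapezoidal integration of a log-logistic fit, after scaling curves that rose above full viability and discarding those that failed quality control. The fit had four parameters and used log10 doses.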

[5] = system: NOMO1; experiment: as above
Procedure, shortened: as §2

[6] = system: P12-Ichikawa; experiment: as above
Procedure, shortened: as §2

N#Cc1ccnc(Nc2cc(C3CCN(C4COC4)CC3)cc(N3CCC(F)(F)C3)n2)c1
cell viability [%]
Conditions | [1] | [2] | [3]
HPLM + 10% dialyzed FBS, 0.000781 µM | 96.4 | 121 | 97.8
HPLM + 10% dialyzed FBS, 0.00234 µM | 97.9 | 109 | 99.8
HPLM + 10% dialyzed FBS, 0.00702 µM | 91.6 | 119 | 104
HPLM + 10% dialyzed FBS, 0.0211 µM | 110 | 114 | 105
HPLM + 10% dialyzed FBS, 0.0632 µM | 110 | 103 | 99.5
HPLM + 10% dialyzed FBS, 0.19 µM | 104 | 110 | 104
HPLM + 10% dialyzed FBS, 0.569 µM | 109 | 114 | 100
HPLM + 10% dialyzed FBS, 1.71 µM | 103 | 124 | 108
HPLM + 10% dialyzed FBS, 5.12 µM | 102 | 127 | 107
HPLM + 10% dialyzed FBS, 15.4 µM | 35.3 | 53.2 | 88.2
HPLM + 10% dialyzed FBS, 46.1 µM | 10.2 | 10.6 | 36.1
RPMI 5 mM glucose + 10% FBS, 0.000781 µM | 107 | 101 | 105
RPMI 5 mM glucose + 10% FBS, 0.00234 µM | 127 | 99.7 | 104
RPMI 5 mM glucose + 10% FBS, 0.00702 µM | 125 | 106 | 101
RPMI 5 mM glucose + 10% FBS, 0.0211 µM | 128 | 106 | 101
RPMI 5 mM glucose + 10% FBS, 0.0632 µM | 123 | 93.6 | 102
RPMI 5 mM glucose + 10% FBS, 0.19 µM | 110 | 108 | 99.7
RPMI 5 mM glucose + 10% FBS, 0.569 µM | 131 | 105 | 108
RPMI 5 mM glucose + 10% FBS, 1.71 µM | 112 | 102 | 115
RPMI 5 mM glucose + 10% FBS, 5.12 µM | 100 | 107 | 108
RPMI 5 mM glucose + 10% FBS, 15.4 µM | 43.7 | 44.7 | 62.8
RPMI 5 mM glucose + 10% FBS, 46.1 µM | 8.66 | 11.3 | 32.2
RPMI 5 mM glucose + 10% dialyzed FBS, 0.000781 µM | 103 | 108 | 108
RPMI 5 mM glucose + 10% dialyzed FBS, 0.00234 µM | 110 | 91.6 | 104
RPMI 5 mM glucose + 10% dialyzed FBS, 0.00702 µM | 97.8 | 110 | 101
RPMI 5 mM glucose + 10% dialyzed FBS, 0.0211 µM | 111 | 102 | 103
RPMI 5 mM glucose + 10% dialyzed FBS, 0.0632 µM | 121 | 96.2 | 109
RPMI 5 mM glucose + 10% dialyzed FBS, 0.19 µM | 101 | 107 | 104
RPMI 5 mM glucose + 10% dialyzed FBS, 0.569 µM | 110 | 98.7 | 106
RPMI 5 mM glucose + 10% dialyzed FBS, 1.71 µM | 106 | 108 | 108
RPMI 5 mM glucose + 10% dialyzed FBS, 5.12 µM | 85.5 | 107 | 111
RPMI 5 mM glucose + 10% dialyzed FBS, 15.4 µM | 25.5 | 39.1 | 56.8
RPMI 5 mM glucose + 10% dialyzed FBS, 46.1 µM | 9.03 | 9.87 | 36.8

AUC of viability dose-response curve
Conditions | [4] | [5] | [6]
HPLM + 10% dialyzed FBS | 424 | 430 | 455
RPMI 5 mM glucose + 10% FBS | 415 | 429 | 441
RPMI 5 mM glucose + 10% dialyzed FBS | 408 | 426 | 439
